Data from PubChem BioAssay AID1963445 (Molecular Pharmacology Branch, DTP, NCI, 2024).
“And” between values parts separate entries of the source, which are not always exact repeats. Identical values can stand only once.

Test system: MCF7 complex spheroid growth, % test/control
Test: Anticancer human tumor MCF7 cell line growth inhibition [Asc];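 also: spheroids exposed to compounds for 7 days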;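 as to viability, T/C: 100% = DMSO vehicle control wells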
Details: for viability, T/C: stronger effect = lower value
Outline: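 Complex spheroids combining tumor cells with HUVEC endothelial cells and human MSCs, at 37 degrees C, 5% CO2; agents tested alone or combined, half-log dilutions from at or near clinical Cmax, or 10 microM if Cmax unknown.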

`Cc1nc(N2CCC3(CC2)COC(C)C3N)c(CO)nc1Sc1ccnc(N)c1Cl` (stereo unspecified) + Cc1c(S(C)(=O)=O)c(-c2cc(F)cc(N3CCN(c4ccc(NS(=O)(=O)c5ccc(NC(CCN6CCC(C(=O)OCCCP(=O)(O)O)CC6)CSc6ccccc6)c(S(=O)(=O)C(F)(F)F)c5)cc4)CC3)c2)c(-c2ccc(Cl)cc2)n1C(C)C gave an IC50 (curve of first compound, second compound 0.0316 µM) of 736 nM, an IC50 (curve of first compound, second compound 0.1 µM) of 787 nM and an IC50 (curve of first compound, second compound 0.316 µM) of 491 nM. For the same compound, the IC50 (curve of first compound, second compound 1 µM) was 534 nM, the IC50 (curve of first compound, second compound 3.16 µM) was 668 nM and the IC50 (curve of first compound, second compound 10 µM) was 789 nM. For the same compound, the viability, T/C (second compound 0.0316 µM, first compound 0.00949 µM) was 91.3%, the viability, T/C (second compound 0.0316 µM, first compound 0.03 µM) was 92.1% and the viability, T/C (second compound 0.0316 µM, first compound 0.0949 µM) was 90%. For the same compound, the viability, T/C (second compound 0.0316 µM, first compound 0.3 µM) was 88.8%, the viability, T/C (second compound 0.0316 µM, first compound 0.949 µM) was 39.1% and the viability, T/C (second compound 0.0316 µM, first compound 3 µM) was 14.7%. For the same compound, the viability, T/C (second compound 0.1 µM, first compound 0.00949 µM) was 90.6%, the viability, T/C (second compound 0.1 µM, first compound 0.03 µM) was 79.7% and the viability, T/C (second compound 0.1 µM, first compound 0.0949 µM) was 73.7%. The viability, T/C (second compound 0.1 µM, first compound 0.3 µM) was 80%, the viability, T/C (second compound 0.1 µM, first compound 0.949 µM) was 44.2% and the viability, T/C (second compound 0.1 µM, first compound 3 µM) was 14.9%. For the same compound, the viability, T/C (second compound 0.316 µM, first compound 0.00949 µM) was 98.3%, the viability, T/C (second compound 0.316 µM, first compound 0.03 µM) was 84.2% and the viability, T/C (second compound 0.316 µM, first compound 0.0949 µM) was 75.2%. It also gave a viability, T/C (second compound 0.316 µM, first compound 0.3 µM) of 72.8%, a viability, T/C (second compound 0.316 µM, first compound 0.949 µM) of 19.7% and a viability, T/C (second compound 0.316 µM, first compound 3 µM) of 15.5%. For the same compound, the viability, T/C (second compound 1 µM, first compound 0.00949 µM) was 80.5%, the viability, T/C (second compound 1 µM, first compound 0.03 µM) was 84.6% and the viability, T/C (second compound 1 µM, first compound 0.0949 µM) was 85.7%. The viability, T/C (second compound 1 µM, first compound 0.3 µM) was 81.2%, the viability, T/C (second compound 1 µM, first compound 0.949 µM) was 18.9% and the viability, T/C (second compound 1 µM, first compound 3 µM) was 15.3%. The viability, T/C (second compound 3.16 µM, first compound 0.00949 µM) was 98.3%, the viability, T/C (second compound 3.16 µM, first compound 0.03 µM) was 88.4% and the viability, T/C (second compound 3.16 µM, first compound 0.0949 µM) was 89.5%. It also gave a viability, T/C (second compound 3.16 µM, first compound 0.3 µM) of 80.6%, a viability, T/C (second compound 3.16 µM, first compound 0.949 µM) of 36.6% and a viability, T/C (second compound 3.16 µM, first compound 3 µM) of 20.5%. The viability, T/C (second compound 10 µM, first compound 0.00949 µM) was 247%, the viability, T/C (second compound 10 µM, first compound 0.03 µM) was 221% and the viability, T/C (second compound 10 µM, first compound 0.0949 µM) was 202%. The viability, T/C (second compound 10 µM, first compound 0.3 µM) was 176%, the viability, T/C (second compound 10 µM, first compound 0.949 µM) was 26% and the viability, T/C (second compound 10 µM, first compound 3 µM) was 26%.
In the case of `NC(=O)C(=Cn1cnc(-c2cc(C(F)(F)F)cc(C(F)(F)F)c2)n1)c1cncnc1`, the viability, T/C (compound 0.000949 µM) is reported as 113% and 86% and 71.3%, the viability, T/C (compound 0.003 µM) is reported as 95.1% and 90% and 67.6% and the viability, T/C (compound 0.00949 µM) is reported as 81.6% and 81.3% and 64.6%. The viability, T/C (compound 0.03 µM) was 83.8% and 96.8% and 60.7%, the viability, T/C (compound 0.0949 µM) was 41.4% and 32.1% and 51.5% and the viability, T/C (compound 0.3 µM) was 16% and 17.7% and 24.4%. For the same compound, the IC50 (curve of compound) was 83.4 nM and 65.8 nM and 94.9 nM.
With `NC(=O)C(=Cn1cnc(-c2cc(C(F)(F)F)cc(C(F)(F)F)c2)n1)c1cncnc1` + CCN1C(C(=O)NC23CCC(C(=O)O)(CC2)CC3)C(c2cccc(Cl)c2F)C2(C(=O)Nc3cc(Cl)ccc32)C12CCCCC2 the IC50 (curve of first compound, second compound 0.00949 µM) was 50 nM, the IC50 (curve of first compound, second compound 0.03 µM) was 15.3 nM and the IC50 (curve of first compound, second compound 0.0949 µM) was < 0.949 nM. The IC50 (curve of first compound, second compound 0.3 µM) was < 0.949 nM, the IC50 (curve of first compound, second compound 0.949 µM) was < 0.949 nM and the IC50 (curve of first compound, second compound 3 µM) was < 0.949 nM. It also gave a viability, T/C (second compound 0.00949 µM, first compound 0.000949 µM) of 109%, a viability, T/C (second compound 0.00949 µM, first compound 0.003 µM) of 107% and a viability, T/C (second compound 0.00949 µM, first compound 0.00949 µM) of 86.7%. The viability, T/C (second compound 0.00949 µM, first compound 0.03 µM) was 73.6%, the viability, T/C (second compound 0.00949 µM, first compound 0.0949 µM) was 23.7% and the viability, T/C (second compound 0.00949 µM, first compound 0.3 µM) was 14.1%. The viability, T/C (second compound 0.03 µM, first compound 0.000949 µM) was 89.2%, the viability, T/C (second compound 0.03 µM, first compound 0.003 µM) was 75.2% and the viability, T/C (second compound 0.03 µM, first compound 0.00949 µM) was 55.6%. It also gave a viability, T/C (second compound 0.03 µM, first compound 0.03 µM) of 44.4%, a viability, T/C (second compound 0.03 µM, first compound 0.0949 µM) of 17.8% and a viability, T/C (second compound 0.03 µM, first compound 0.3 µM) of 14.3%. It also gave a viability, T/C (second compound 0.0949 µM, first compound 0.000949 µM) of 45.5%, a viability, T/C (second compound 0.0949 µM, first compound 0.003 µM) of 48% and a viability, T/C (second compound 0.0949 µM, first compound 0.00949 µM) of 30.4%. For the same compound, the viability, T/C (second compound 0.0949 µM, first compound 0.03 µM) was 12.4%, the viability, T/C (second compound 0.0949 µM, first compound 0.0949 µM) was 9.36% and the viability, T/C (second compound 0.0949 µM, first compound 0.3 µM) was 12.6%. The viability, T/C (second compound 0.3 µM, first compound 0.000949 µM) was 25.9%, the viability, T/C (second compound 0.3 µM, first compound 0.003 µM) was 22.5% and the viability, T/C (second compound 0.3 µM, first compound 0.00949 µM) was 16%. For the same compound, the viability, T/C (second compound 0.3 µM, first compound 0.03 µM) was 13.9%, the viability, T/C (second compound 0.3 µM, first compound 0.0949 µM) was 11.8% and the viability, T/C (second compound 0.3 µM, first compound 0.3 µM) was 13.4%. It also gave a viability, T/C (second compound 0.949 µM, first compound 0.000949 µM) of 14.8%, a viability, T/C (second compound 0.949 µM, first compound 0.003 µM) of 11% and a viability, T/C (second compound 0.949 µM, first compound 0.00949 µM) of 9.57%. For the same compound, the viability, T/C (second compound 0.949 µM, first compound 0.03 µM) was 10.6%, the viability, T/C (second compound 0.949 µM, first compound 0.0949 µM) was 14% and the viability, T/C (second compound 0.949 µM, first compound 0.3 µM) was 14.7%. The viability, T/C (second compound 3 µM, first compound 0.000949 µM) was 13.1%, the viability, T/C (second compound 3 µM, first compound 0.003 µM) was 10.4% and the viability, T/C (second compound 3 µM, first compound 0.00949 µM) was 10.3%. For the same compound, the viability, T/C (second compound 3 µM, first compound 0.03 µM) was 13.8%, the viability, T/C (second compound 3 µM, first compound 0.0949 µM) was 16.1% and the viability, T/C (second compound 3 µM, first compound 0.3 µM) was 20.5%.
